Molecules are shown by their SMILES.

The target of one series is T1, recombinant human MAO-A (Homo sapiens, UniProt P21397).
T1 construct: purchased Sigma-Aldrich
T1 sequence (P21397 1-527): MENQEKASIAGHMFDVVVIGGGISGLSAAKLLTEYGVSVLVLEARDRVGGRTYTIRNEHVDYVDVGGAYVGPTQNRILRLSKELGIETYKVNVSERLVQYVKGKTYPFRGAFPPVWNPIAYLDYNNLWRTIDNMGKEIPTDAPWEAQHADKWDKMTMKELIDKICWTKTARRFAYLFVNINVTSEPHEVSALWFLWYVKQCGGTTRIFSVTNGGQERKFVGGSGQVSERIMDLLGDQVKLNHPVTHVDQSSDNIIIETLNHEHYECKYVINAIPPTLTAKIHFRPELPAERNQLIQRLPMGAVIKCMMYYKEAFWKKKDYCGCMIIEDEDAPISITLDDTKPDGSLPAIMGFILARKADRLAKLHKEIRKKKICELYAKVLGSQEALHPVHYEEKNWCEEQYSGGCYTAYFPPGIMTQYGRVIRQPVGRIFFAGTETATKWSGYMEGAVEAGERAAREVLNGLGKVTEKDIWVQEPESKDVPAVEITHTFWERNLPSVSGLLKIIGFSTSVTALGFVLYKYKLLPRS
The series is described as follows: Human MAO-A inhibitory assay (kynuramine, fluorescence of 4-hydroxyquinoline). Particulars: for Ki: from IC50 by Cheng–Prusoff, Km 16.1 μM; for Si MAO-A (selectivity index between MAO-A and MAO-B): ratio of Ki values; for IC50: recombinant human MAO-A, kynuramine, pH 7.4, 37 °C, 20 min, mean ± SD. It is filed as biochemical. On the procedure: (§1) The crude ethanol extract of A. philoxeroides, together with its constituents, alternanthin (1a), althernanthin B (1b), torosaflavone E (3a), dimethyltorosaflavone D (3b) and chrysoeriol 7-rhamnoside (5) were tested for their inhibitory activity on MAO-A and MAO-B, using the recombinant human MAO-A and MAO-B. The rates of MAO catalysis was determined by measuring the production of 4-hydroxyquinoline by fluorescence spectrophotometry. […] For this purpose, Km values for the oxidation of kynuramine by MAO-A and MAO-B were used from previous studies, i.e., 16.1 μM for human MAO-A and 22.7 μM for human MAO-B [15].
(§2) The MAOs inhibitory activity assay of the A. philoxeroides extract and some of its flavonoid constituents, using recombinant human MAO-A and MAO-B (Sigma-Aldrich, St. Louis, MO, USA) as enzyme sources, was performed according to the method described by Manley-King et al.. Briefly, the crude extract 100 mg was dissolved in 400 µL DMSO to prepare 250 mg/mL as a stock solution. Serial dilution of test samples (20 µL) for each concentration was used to test the activity. For 1a, 1b, 3a, 3b and 5, a stock solution of 1000 μM in DMSO was prepared and a serial dilution of the test sample (20 μL) of each concentration was used to test the activity. Concentration of MAOs was 0.0075 mg/mL for MAO-A inhibitor test, 9 µL of kynuramine (Sigma-Aldrich, St. Louis, MO, USA) was mixed with 469.5 µL of potassium phosphate buffer (pH 7.4). For MAO-B inhibitor test, 6 µL of kynuramine was mixed with 472.5 µL of potassium phosphate buffer (pH 7.4). Then 1.5 µL of the enzymes were added before incubation at 37 °C for 20 min. The reaction was stopped by adding 400 µL of 2N NaOH and 1000 µL of water. Measurement of 4-hydroxyquinoline (Sigma-Aldrich, St. Louis, MO, USA) was carried out by fluorescence spectrophotometry with the excitation wavelength at 310 nm and the emission wavelength at 400 nm. […] Data were analyzed by Prism 5 software package (GraphPad Software, version 5, San Diego, CA, USA). The IC50 values were converted to the corresponding Ki values according to the equation Ki = IC50/(1+[S]/Km).

For another series, the target named is T2, recombinant human MAO-B (Homo sapiens, UniProt P27338).
T2 construct: purchased Sigma-Aldrich
T2 sequence (P27338 1-520): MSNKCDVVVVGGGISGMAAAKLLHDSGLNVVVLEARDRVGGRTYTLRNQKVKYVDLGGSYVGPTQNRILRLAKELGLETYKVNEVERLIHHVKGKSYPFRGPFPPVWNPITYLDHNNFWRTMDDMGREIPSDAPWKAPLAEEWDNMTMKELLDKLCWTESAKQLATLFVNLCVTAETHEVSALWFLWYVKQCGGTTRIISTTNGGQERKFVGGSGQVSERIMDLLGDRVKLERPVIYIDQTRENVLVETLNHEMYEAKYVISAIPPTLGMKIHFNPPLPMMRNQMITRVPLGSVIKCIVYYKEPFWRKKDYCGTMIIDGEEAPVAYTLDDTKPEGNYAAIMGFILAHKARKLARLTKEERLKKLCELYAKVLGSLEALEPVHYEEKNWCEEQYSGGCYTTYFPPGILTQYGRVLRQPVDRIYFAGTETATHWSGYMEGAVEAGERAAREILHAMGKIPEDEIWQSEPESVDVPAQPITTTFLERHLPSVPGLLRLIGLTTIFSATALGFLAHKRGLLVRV
The series is described as follows: Human MAO-B inhibitory assay (kynuramine, fluorescence of 4-hydroxyquinoline). It is filed as biochemical. The following applies: for Isoform selectivity from the selectivity index, MAO-B: based on Si; for Ki: from IC50 by Cheng–Prusoff, Km 22.7 μM; for Si MAO-B (selectivity index between MAO-A and MAO-B): ratio of Ki values; for IC50: recombinant human MAO-B, kynuramine, pH 7.4, 37 °C, 20 min, mean ± SD. The protocol: as §1, §2

For `COc1cc(-c2cc(=O)c3c(O)cc(O[C@@H]4O[C@@H](C)[C@H](O)[C@@H](O)[C@H]4O)cc3o2)ccc1O` [Compound 5, chrysoeriol 7-O-rhamnoside], on recombinant human MAO-A, the Ki (usually the equilibrium dissociation constant of an inhibitor or competing ligand from its target) came to 0.804 µM; the “Si MAO-A (selectivity index between MAO-A and MAO-B)” value was determined as 3.4303; the 50% inhibitory concentration (IC50) (in general, the concentration at which inhibition is half-maximal) is 3.05 ± 0.35 µM. In addition, at recombinant human MAO-B, the “Isoform selectivity from the selectivity index, MAO-B” value is given as “partially selective for MAO-B isoform”; the inhibition constant (Ki) was determined as 0.234 µM; the “Si MAO-B (selectivity index between MAO-A and MAO-B)” value worked out at 0.2915; the IC50 amounted to 0.544 ± 0.33 µM.

For `O=C(O)/C=C/c1c(O)cc2oc(-c3ccc(O)c(O)c3)cc(=O)c2c1O` [Compound 3b, demethyltorosaflavone D], at recombinant human MAO-A, the Ki was 0.133 µM; the “Si MAO-A (selectivity index between MAO-A and MAO-B)” value is listed as 2.3850. For the same compound, on recombinant human MAO-B, the “Isoform selectivity from the selectivity index, MAO-B” value is listed as “partially selective for MAO-B isoform”; the Ki was 0.0557 µM; the “Si MAO-B (selectivity index between MAO-A and MAO-B)” value is on record as 0.4193; the IC50 stood at 0.129 µM.

For the compound `C[C@H]1O[C@@H](c2c(O)cc3oc(-c4ccc(O)c(O)c4)cc(=O)c3c2O)C[C@H](O)[C@H]1O` [Compound 1b, alternanthin B], on recombinant human MAO-A, the Ki was found to be 0.00054 µM; the “Si MAO-A (selectivity index between MAO-A and MAO-B)” value stood at 5.6681; the IC50 is 0.00206 µM. Also, at recombinant human MAO-B, the “Isoform selectivity from the selectivity index, MAO-B” value is reported as “partially selective for MAO-B isoform”; the Ki worked out at 0.0001 µM; the “Si MAO-B (selectivity index between MAO-A and MAO-B)” value was 0.1764.

For `COc1cc(-c2cc(=O)c3c(O)c([C@H]4C[C@H](O)[C@@H](O)[C@@H](C)O4)c(O)cc3o2)ccc1O` [Compound 1a, altheranthin], the “Isoform selectivity from the selectivity index, MAO-A” value on recombinant human MAO-A (based on Si) is “partially selective for MAO-A isoform”. Further, at recombinant human MAO-A, the inhibitory constant (Ki) worked out at 0.00012 µM; the “Si MAO-A (selectivity index between MAO-A and MAO-B)” value came to 0.4681. Also, at recombinant human MAO-B, the inhibition constant (Ki) was found to be 0.00026 µM; the “Si MAO-B (selectivity index between MAO-A and MAO-B)” value is 2.1364.

Regarding `COc1cc(-c2cc(=O)c3c(O)c(/C=C/C(=O)O)c(O)cc3o2)ccc1O` [Compound 3a, torosaflavone E], the melting point – broadly, the temperature, or range, at which the solid turns liquid – fell in the range of 250 to 252 °C. Moreover, on recombinant human MAO-A, the Ki was 4.84 µM; the “Si MAO-A (selectivity index between MAO-A and MAO-B)” value was found to be 16.6534; the IC50 was 18.4 ± 1.47 µM. Moreover, at recombinant human MAO-B, the “Isoform selectivity from the selectivity index, MAO-B” value was “partially selective for MAO-B isoform”; the Ki is 0.29 µM; the “Si MAO-B (selectivity index between MAO-A and MAO-B)” value amounted to 0.0601; the half-maximal inhibitory concentration (IC50) stood at 0.675 ± 0.46 µM.

The record behind these values is PMC6225253, “Chemical Constituents and Antidepressant-Like Effects in Ovariectomized Mice of the Ethanol Extract of Alternanthera philoxeroides” (Molecules : A Journal of Synthetic Chemistry and Natural …, 2018).
